Test results from patent US20130035343A1, “COMBINATION OF ORGANIC COMPOUNDS” (priority 2010, published 2013).

System: patient-derived HCC xenograft lines (07-0409, 29-0909A, 01-0909)
Assay: Patient-derived HCC xenograft models in SCID mice
Conditions: for tumor growth rate of xenografts / tumor regressions: single agent therapy, 30 mg/kg Compound of Formula I or 5 mg/kg RAD001 orally daily, HCC07-0409
[1] = 30 mg/kg Compound of Formula I orally daily, SCID mice

Description: Xenograft models: All mice were provided with sterilized food and water ad libitum and housed in negative pressure isolators with 12 hours light/dark cycle. Primary HCCs have previously been used to create xenograft lines, of which the following lines (07-0409, 29-0909A, 01-0909) were used to establish tumors in male SCID mice (Animal Resources Centre, Canning Vale, Western Australia) aged 9 to 10 weeks.
Tumor treatment: Compound of Formula I and RAD001 was dissolved in vehicle at an appropriate concentration before treatment. Mice bearing indicated tumors were orally administered 5 mg/kg RAD001 or 30 mg/kg Compound of Formula I daily, or two compounds combined for indicated days. Each treatment group was comprised of 10 animals and each experiment was repeated at least twice. Treatment started on day 7 after tumor implantation. By this time, the tumors reached the size of approximately 100 mm^3. Tumor growth was monitored and tumor volume was calculated as described. At the end of the study, the mice were sacrificed with body and tumor weights recorded and the tumors harvested for analysis. The efficacy of Compound of Formula I was determined by T/C ratio, where T and C are median weight of drug-treated and vehicle-treated tumor respectively at the end of treatment.

Compound | acute mortality throughout treatment [1] | body weight loss throughout treatment [1] | anti-tumor activities on patient-derived HCC xenograft lines (lines 07-0409, 29-0909A, 01-0909, 30 mg/kg orally daily) | tumor growth rate of xenografts | tumor regressions
CN1CCN(c2ccc3nc(-c4c(N)c5c(F)cccc5[nH]c4=O)[nH]c3c2)CC1 [Compound of Formula I, 4-Amino-5-fluoro-3-[6-(4-methylpiperazin-1-yl)-1H-benzimidazol-2-yl]-1H-quinolin-2-one] | no acute mortality | no significant weight loss | observed | inhibited | did not induce tumor regressions
CO[C@H]1C[C@@H]2CC[C@@H](C)[C@@](O)(O2)C(=O)C(=O)N2CCCC[C@H]2C(=O)O[C@H]([C@H](C)C[C@@H]2CC[C@@H](OCCO)[C@H](OC)C2)CC(=O)[C@H](C)/C=C(\C)[C@@H](O)[C@@H](OC)C(=O)[C@H](C)C[C@H](C)/C=C/C=C/C=C/1C [RAD001, 40-O-(2-hydroxy)ethyl-rapamycin, reference compound] |  |  |  | inhibited | did not induce tumor regressions
